Assay results: ChEMBL document CHEMBL3228010, “Potential antitumor agents. 29. Quantitative structure-activity relationships for the antileukemic bisquaternary ammonium heterocycles” (J Med Chem, 1979)

What was measured:
L1210 [1] = test: Antitumor activity against mouse L1210 cells […] in ip dosed C3H X DBA2 F1 hybrid mouse on day 0 and dosed at LD10 level once daily on days 1 to 5 assessed as increase in life span relative to control; format: functional
[2] = Displacement of ethidium from poly[d(A-T)]-poly[d(A-T)] DNA by fluorimetric method
Bos taurus = species on record: Bos taurus; test: Displacement of ethidium from calf thymus DNA by fluorimetric method
[3] = Displacement of ethidium from poly[d(G-C)]-poly[d(G-C)] DNA (unknown origin) by fluorimetric method
Mus musculus = test: Toxicity in ip dosed C3H X DBA2 F1 hybrid mouse […] with mouse L1210 cells on day 0 and dosed once daily on days 1 to 5 measured after 50 days; format: organism-based; conditions: in vivo, 1200 h
L1210 [4] = test: Antitumor activity against mouse L1210 cells […] in ip dosed C3H X DBA2 F1 hybrid mouse on day 0 and dosed once daily on days 1 to 5 assessed as increase in life span relative to control; format: functional
[5] = Lipophilic-hydrophilic balance, Rm of the compound by partition chromatography; format: physicochemical

## C[n+]1ccc(-c2ccc(-c3ccc(-c4ccc(NC(=O)c5ccc(C(=O)Nc6ccc(-c7ccc(-c8ccc(-c9cc[n+](C)cc9)cc8)cc7)cc6)cc5)cc4)cc3)cc2)cc1.Cc1ccc(S(=O)(=O)[O-])cc1.Cc1ccc(S(=O)(=O)[O-])cc1
L1210 [1]
  log(ILSmax): 2.28
[2]
  C50: 0.4 µM
Bos taurus
  C50: 0.55 µM
[3]
  C50: 1.15 µM
Mus musculus
  LD10: 110 mg/kg
L1210 [4]
  D40: 22 mg/kg
[5]
  Rm: -0.3

## CC(=O)Nc1ccc2c(Nc3ccc(NC(=O)c4ccc(Nc5cc[n+](C)cc5)cc4)cc3)cc[n+](C)c2c1.Cc1ccc(S(=O)(=O)[O-])cc1.Cc1ccc(S(=O)(=O)[O-])cc1
L1210 [1]
  log(ILSmax): 2.26
[2]
  C50: 0.13 µM
Bos taurus
  C50: 0.34 µM
[3]
  C50: 0.53 µM
Mus musculus
  LD10: 97 mg/kg
L1210 [4]
  D40: 10 mg/kg
[5]
  Rm: -0.1

## C[n+]1cccc(NC(=O)c2ccc(NC(=O)c3ccc(C(=O)Nc4ccc(C(=O)Nc5ccc[n+](C)c5)cc4)c4ccccc34)cc2)c1.Cc1ccc(S(=O)(=O)[O-])cc1.Cc1ccc(S(=O)(=O)[O-])cc1
L1210 [1]
  log(ILSmax): 1.84
[2]
  C50: 1.1 µM
Bos taurus
  C50: 1.5 µM
[3]
  C50: 2.7 µM
Mus musculus
  LD10: 140 mg/kg
L1210 [4]
  D40: 54.5 mg/kg
[5]
  Rm: 0.45

## CC[n+]1ccc(Nc2ccc(NC(=O)c3ccc(Nc4cc[n+](CC)c5ccc(N)cc45)cc3)cc2)cc1.[Br-].[Br-]
L1210 [1]
  log(ILSmax): 2.25
[2]
  C50: 0.1 µM
Bos taurus
  C50: 0.69 µM
[3]
  C50: 1.04 µM
Mus musculus
  LD10: 10 mg/kg
L1210 [4]
  D40: 0.9 mg/kg
[5]
  Rm: 0.22

## Cc1ccc(S(=O)(=O)[O-])cc1.Cc1ccc(S(=O)(=O)[O-])cc1.Cc1cccc2c(Nc3ccc(C(=O)Nc4ccc(Nc5cc[n+](C)cc5)cc4)cc3)cc[n+](C)c12
L1210 [1]
  log(ILSmax): 2.02
[2]
  C50: 0.31 µM
Bos taurus
  C50: 0.87 µM
[3]
  C50: 2.01 µM
Mus musculus
  LD10: 60 mg/kg
L1210 [4]
  D40: 12 mg/kg
[5]
  Rm: 0.51

## C(=C\c1ccc(-[n+]2ccccc2)cc1)/c1ccc(/C=C/c2ccc(-[n+]3ccccc3)cc2)cc1.Cc1ccc(S(=O)(=O)[O-])cc1.Cc1ccc(S(=O)(=O)[O-])cc1
L1210 [1]
  log(ILSmax): 1.95
[2]
  C50: 0.2 µM
Bos taurus
  C50: 0.76 µM
[3]
  C50: 2.1 µM
Mus musculus
  LD10: 7 mg/kg
L1210 [4]
  D40: 1.6 mg/kg
[5]
  Rm: 0.05

## C[n+]1ccc(Nc2ccc(C(=O)Nc3ccc(Nc4c5ccccc5[n+](C)c5cc(N)ccc45)cc3)cc2)cc1.[Cl-].[Cl-]
L1210 [1]
  log(ILSmax): 2.23
[2]
  C50: 0.06 µM
Bos taurus
  C50: 0.11 µM
[3]
  C50: 0.16 µM
Mus musculus
  LD10: 37 mg/kg
L1210 [4]
  D40: 2 mg/kg
[5]
  Rm: 0.47

## C[n+]1cccc(NC(=O)c2ccc(NC(=O)c3ccc(C(=O)Nc4ccc(C(=O)Nc5ccc[n+](C)c5)cc4)c(Cl)c3)cc2)c1.Cc1ccc(S(=O)(=O)[O-])cc1.Cc1ccc(S(=O)(=O)[O-])cc1
L1210 [1]
  log(ILSmax): 2.11
[2]
  C50: 0.95 µM
Bos taurus
  C50: 1 µM
[3]
  C50: 2 µM
Mus musculus
  LD10: 30 mg/kg
L1210 [4]
  D40: 5.6 mg/kg
[5]
  Rm: 0.05

## CCC[n+]1ccc(Nc2ccc(NC(=O)c3ccc(Nc4cc[n+](CCC)c5ccccc45)cc3)cc2)cc1.[Br-].[Br-]
L1210 [1]
  log(ILSmax): 1.81
[2]
  C50: 0.2 µM
Bos taurus
  C50: 2.3 µM
[3]
  C50: 3 µM
Mus musculus
  LD10: 15 mg/kg
L1210 [4]
  D40: 8.8 mg/kg
[5]
  Rm: 0.74

## C[n+]1cccc2ccc(NC(=O)c3ccc(-c4ccc(-c5ccc(-c6ccc(C(=O)Nc7ccc8ccc[n+](C)c8c7)cc6)cc5)cc4)cc3)cc21.Cc1ccc(S(=O)(=O)[O-])cc1.Cc1ccc(S(=O)(=O)[O-])cc1
L1210 [1]
  log(ILSmax): 1.85
[2]
  C50: 0.14 µM
Bos taurus
  C50: 0.17 µM
[3]
  C50: 0.28 µM
Mus musculus
  LD10: 52 mg/kg
L1210 [4]
  D40: 20 mg/kg
[5]
  Rm: -0.57

## Cc1cc(Nc2ccc(NC(=O)c3ccc(C(=O)Nc4ccc(C(=O)Nc5ccc[n+](C)c5)cc4)cc3)cc2)nc(N)n1.I.[I-]
L1210 [1]
  log(ILSmax): 2
[2]
  C50: 0.27 µM
Bos taurus
  C50: 0.39 µM
[3]
  C50: 0.49 µM
Mus musculus
  LD10: 19 mg/kg
L1210 [4]
  D40: 10 mg/kg
[5]
  Rm: -0.3

## C[n+]1ccc(Nc2ccc(/C=C/c3ccc(Nc4cc[n+](C)c5ccc(N)cc45)cc3)cc2)cc1.[Br-].[Br-]
L1210 [1]
  log(ILSmax): 2.19
[2]
  C50: 0.15 µM
Bos taurus
  C50: 0.38 µM
[3]
  C50: 0.53 µM
Mus musculus
  LD10: 16 mg/kg
L1210 [4]
  D40: 1.8 mg/kg
[5]
  Rm: 0.31

## C[n+]1ccc(Nc2ccc(C(=O)Nc3ccc(Nc4cc[n+](C)c5cc(N)ccc45)cc3)cc2)cc1.Cc1ccc(S(=O)(=O)[O-])cc1.Cc1ccc(S(=O)(=O)[O-])cc1
L1210 [1]
  log(ILSmax): 2.34
[2]
  C50: 0.12 µM
Bos taurus
  C50: 0.43 µM
[3]
  C50: 1.04 µM
Mus musculus
  LD10: 25 mg/kg
L1210 [4]
  D40: 1.5 mg/kg
[5]
  Rm: -0.04

## C[n+]1ccc(Nc2ccc(NC(=O)c3ccc(Nc4cc[n+](C)c5ccc(Cl)cc45)cc3)cc2)cc1.Cc1ccc(S(=O)(=O)[O-])cc1.Cc1ccc(S(=O)(=O)[O-])cc1
L1210 [1]
  log(ILSmax): 1.81
[2]
  C50: 0.24 µM
Bos taurus
  C50: 0.79 µM
[3]
  C50: 1.76 µM
Mus musculus
  LD10: 40 mg/kg
L1210 [4]
  D40: 14 mg/kg
[5]
  Rm: 0.57

## C[n+]1cccc(NC(=O)c2ccc(NC(=O)c3ccc(C(=O)Nc4ccc(C(=O)Nc5ccc[n+](C)c5)cc4Cl)cc3)c(Cl)c2)c1.Cc1ccc(S(=O)(=O)[O-])cc1.Cc1ccc(S(=O)(=O)[O-])cc1
L1210 [1]
  log(ILSmax): 1.6
[2]
  C50: 1.3 µM
Bos taurus
  C50: 1.3 µM
[3]
  C50: 1.5 µM
Mus musculus
  LD10: 50 mg/kg
L1210 [4]
  D40: 50 mg/kg
[5]
  Rm: 0.36

## C[n+]1cccc2ccc(NC(=O)c3ccc(NC(=O)c4ccc(C(=O)Nc5ccc6ccc[n+](C)c6c5)cc4)cc3)cc21.Cc1ccc(S(=O)(=O)[O-])cc1.Cc1ccc(S(=O)(=O)[O-])cc1
L1210 [1]
  log(ILSmax): 1.85
[2]
  C50: 0.16 µM
Bos taurus
  C50: 0.16 µM
[3]
  C50: 0.25 µM
Mus musculus
  LD10: 34 mg/kg
L1210 [4]
  D40: 15 mg/kg
[5]
  Rm: -0.76

## CC[n+]1cccc(NC(=O)c2ccc(NC(=O)c3ccc(C(=O)Nc4ccc5c(ccc[n+]5CC)c4)cc3)cc2)c1.Cc1ccc(S(=O)(=O)[O-])cc1.Cc1ccc(S(=O)(=O)[O-])cc1
L1210 [1]
  log(ILSmax): 2.2
[2]
  C50: 0.62 µM
Bos taurus
  C50: 0.74 µM
[3]
  C50: 1.48 µM
Mus musculus
  LD10: 9 mg/kg
L1210 [4]
  D40: 2.3 mg/kg
[5]
  Rm: 0.09

## Cc1cc(Nc2ccc(NC(=O)c3ccc(C(=O)Nc4ccc(Nc5cc(C)[n+](C)c(N)n5)cc4)cc3)cc2)nc(N)[n+]1C.Cc1ccc(S(=O)(=O)[O-])cc1.Cc1ccc(S(=O)(=O)[O-])cc1
L1210 [1]
  log(ILSmax): 2.12
[2]
  C50: 0.4 µM
Bos taurus
  C50: 0.5 µM
[3]
  C50: 0.8 µM
Mus musculus
  LD10: 250 mg/kg
L1210 [4]
  D40: 75 mg/kg
[5]
  Rm: -0.71

## C[n+]1cc(-c2ccc(NC(=O)c3ccc(Nc4cc[n+](C)c5ccccc45)cc3)cc2)c(N)nc1N.Cc1ccc(S(=O)(=O)[O-])cc1.Cc1ccc(S(=O)(=O)[O-])cc1
L1210 [1]
  log(ILSmax): 2.27
[2]
  C50: 0.22 µM
Bos taurus
  C50: 1.24 µM
[3]
  C50: 2.73 µM
Mus musculus
  LD10: 20 mg/kg
L1210 [4]
  D40: 3.5 mg/kg
[5]
  Rm: -0.01

## CC[n+]1ccc(Nc2ccc(NC(=O)c3ccc(Nc4cc(C)[n+](CC)c5ccc(N)cc45)cc3N)cc2)cc1.[I-].[I-]
L1210 [1]
  log(ILSmax): 1.86
[2]
  C50: 0.31 µM
Bos taurus
  C50: 0.5 µM
[3]
  C50: 1.17 µM
Mus musculus
  LD10: 20 mg/kg
L1210 [4]
  D40: 7.2 mg/kg
[5]
  Rm: 0.34
